Counter-ions that a name gives are not always drawn.
Experiments:
HCT116 FOPFlash = experiment: Control reporter assay, HCT116 FOP control vector (non-functional TCF elements), luciferase expression; format: cell-based; settings: HCT116 FOP control reporter cells, 36 hours incubation, dilution series 50 μM to 15 nM
Experimental: In a parallel approach, HCT116 cells were cotransfected with the FOP control vector and pcDNA3. The FOP vector is identical to the TOP construct, but it contains instead of functional TCF elements a randomized, non-functional sequence. For this transfection a stable transfected cell line was generated as well.
(§1) In preparation of the assay, the two cell lines were plated 24 hours before at 10000 cells per well of a 384 micro titre plate (MTP) in 30 μL growth medium. Selective inhibitory activity for small molecules on the mutated Wnt pathway was determined after parallel incubation of both (TOP and FOP) HCT116 reporter cell lines with a compound dilution series from 50 μM to 15 nM in steps of 3.16-fold dilutions in CAFTY buffer (130 mM NaCl, 5 mM KCl, 20 mM HEPES, 1 mM MgCl2, 5 mM NaHCO3, pH 7.4) containing 2 mM Ca^2+ and 0.01% BSA. The compounds were thereby serially prediluted in 100% DMSO and thereafter in addition 50 fold into the CAFTY compound dilution buffer (described above). From this dilution 10 μL were added to the cells in 30 μL growth medium and incubated for 36 hours at 37° C. and 5% CO2. Thereafter luciferase assay buffer (1:1 mixture of luciferase substrate buffer (20 mM Tricine, 2.67 mM MgSO4, 0.1 mM EDTA, 4 mM DTT, 270 μM Coenzyme A, 470 μM Luciferin, 530 μM ATP, ph adjusted to pH 7.8 with a sufficient volume of 5M NaOH) and Triton buffer (30 mL Triton X-100, 115 mL glycerol, 308 mg Dithiothreitol, 4.45 g Na2HPO4.2H2O, 3.03 g TRIS HCl, ad 1 l H20, pH 7.8) was added as equal volume to the compound solution on the cells to determine luciferase expression as a measure of Wnt signaling activity in a luminometer.

[1] = tested on: constitutive active colorectal cancer cell (CRC) Wnt pathway, HCT116 TOPFlash; experiment: Cellular reporter assay, HCT116 Super TopFlash (constitutive active Wnt pathway), luciferase expression; format: cell-based; settings: HCT116 Super TopFlash reporter cells, 36 hours incubation, dilution series 50 μM to 15 nM
Experimental: In order to discover and characterize small molecules which inhibit the constitutive active colorectal cancer cell (CRC) Wnt pathway, a cellular reporter assay was employed. The corresponding assay cell was generated by transfection of the colorectal cancer cell line HCT116 (ATCC, #CCL-247) with the Super TopFlash vector (Morin, Science 275, 1997, 1787-1790; Molenaar et al., Cell 86 (3), 1996, 391-399). The HCT116 cell line is cultivated at 37° C. and 5% CO2 in DMEM/F-12 (Life Technologies, #11320-074), supplemented with 2 mM glutamine, 20 mM HEPES, 1.4 mM pyruvate, 0.15% Na-bicarbonate and 10% foetal bovine serum (GIBCO, #10270), this cancer cell line is pathophysiological relevant since it carries a deletion of position S45 in the β-catenin gene, leading to constitutive active Wnt signaling. Stable transfectants were generated by cotransfection with pcDNA3 and selection of stable transfected cells with 1 mg/ml G418.
as §1

Row | SMILES | IC50 (HCT116 FOPFlash; Homo sapiens, HCT-116, 36 h) [nM] | IC50 ([1]; Homo sapiens, HCT-116, 36 h) [nM] | IC50 (HCT116 FOPFlash) [nM] | IC50 [1] [nM]
1 | O=C(CN1CCOCC1)Nc1cc(C(=O)Nc2ccc(-c3cncnc3)cn2)ccc1OC(F)(F)F [Example 1, 3-[(morpholin-4-ylacetyl)amino]-N-[5-(pyrimidin-5-yl)pyridin-2-yl]-4-(trifluoromethoxy)benzamide] | ≥ 50000 | 145 |  | 
2 | O=C(Nc1nnc(-c2cccnc2)s1)c1ccc(OC(F)(F)F)c(NC(=O)C2(N3CCOCC3)CC2)c1 [Example 2, 3-({[1-(morpholin-4-yl)cyclopropyl]carbonyl}amino)-N-[5-(pyridin-3-yl)-1,3,4-thiadiazol-2-yl]-4-(trifluoromethoxy)benzamide] | ≥ 50000 | 282 |  | 
3 | CC(C(=O)Nc1cc(C(=O)Nc2ccc(-c3ccc(N)nc3)nc2)ccc1OC(F)(F)F)N1CCOCC1 (stereo not drawn) [Example 3, N-(6′-amino-2,3′-bipyridin-5-yl)-3-{[2-(morpholin-4-yl)propanoyl]amino}-4-(trifluoromethoxy)benzamide] | ≥ 50000 | 20.9 |  | 
4 | CC(C(=O)Nc1cc(C(=O)Nc2ccc(-c3cncnc3)nc2)ccc1OC(F)(F)F)N1CCOCC1 (stereo not drawn) [Example 4, 3-{[2-(morpholin-4-yl)propanoyl]amino}-N-[6-(pyrimidin-5-yl)pyridin-3-yl]-4-(trifluoromethoxy)benzamide] | ≥ 50000 | 19.5 |  | 
5 | CC(C(=O)Nc1cc(C(=O)Nc2ccc(-c3cccnc3F)nc2)ccc1OC(F)(F)F)N1CCOCC1 (stereo not drawn) [Example 5, N-(2′-fluoro-2,3′-bipyridin-5-yl)-3-{[2-(morpholin-4-yl)propanoyl]amino}-4-(trifluoromethoxy)benzamide] | ≥ 50000 | 16.5 |  | 
6 | CC(C(=O)Nc1cc(C(=O)Nc2ccc(-c3cnc(N)nc3)nc2)ccc1OC(F)(F)F)N1CCOCC1 (stereo not drawn) [Example 6] | ≥ 50000 | 19 |  | 
7 | COc1ncc(-c2ccc(NC(=O)c3ccc(OC(F)(F)F)c(NC(=O)C(C)N4CCOCC4)c3)cn2)cn1 (stereo not drawn) [Example 7, N-[6-(2-methoxypyrimidin-5-yl)pyridin-3-yl]-3-{[2-(morpholin-4-yl)propanoyl]amino}-4-(trifluoromethoxy)benzamide] | ≥ 50000 | 115 |  | 
8 | CC(C(=O)Nc1cc(C(=O)Nc2ccc(-c3cccnc3)nc2)ccc1OC(F)(F)F)N1CCOCC1 (stereo not drawn) [Example 8, N-(2,3′-bipyridin-5-yl)-3-{[2-(morpholin-4-yl)propanoyl]amino}-4-(trifluoromethoxy)benzamide] | ≥ 50000 | 11.6 |  | 
9 | CN1CCN(CC(=O)Nc2cc(C(=O)Nc3nnc(-c4ccccn4)s3)ccc2OC(F)(F)F)CC1 [Example 9, 3-{[(4-methylpiperazin-1-yl)acetyl]amino}-N-[5-(pyridin-2-yl)-1,3,4-thiadiazol-2-yl]-4-(trifluoromethoxy)benzamide hydrochloride] | 22500 | 514 |  | 
10 | CN1CCN(CC(=O)Nc2cc(C(=O)Nc3ccc(-c4ccc(N)nc4)cn3)ccc2OC(F)(F)F)CC1 [Example 10, N-(6′-amino-3,3′-bipyridin-6-yl)-3-{[(4-methylpiperazin-1-yl)acetyl]amino}-4-(trifluoromethoxy)benzamide] | ≥ 50000 | 58 |  | 
11 | CN1CCN(CC(=O)Nc2cc(C(=O)Nc3ccc(-c4cccnc4)cn3)ccc2OC(F)(F)F)CC1 [Example 11, N-(3,3′-bipyridin-6-yl)-3-{[(4-methylpiperazin-1-yl)acetyl]amino}-4-(trifluoromethoxy)benzamide] | ≥ 50000 | 18.8 |  | 
12 | CN1CCN(CC(=O)Nc2cc(C(=O)Nc3ccc(-c4cnc(N)nc4)cn3)ccc2OC(F)(F)F)CC1 [Example 12, N-[5-(2-aminopyrimidin-5-yl)pyridin-2-yl]-3-{[(4-methylpiperazin-1-yl)acetyl]amino}-4-(trifluoromethoxy)benzamide] | ≥ 50000 | 132 |  | 
13 | CN1CCN(CC(=O)Nc2cc(C(=O)Nc3ccc(-c4cccnc4F)cn3)ccc2OC(F)(F)F)CC1 [Example 13, N-(2′-fluoro-3,3′-bipyridin-6-yl)-3-{[(4-methylpiperazin-1-yl)acetyl]amino}-4-(trifluoromethoxy)benzamide] | ≥ 50000 | 41.5 |  | 
14 | O=C(CN1CCOCC1)Nc1cc(C(=O)Nc2ccc(-c3cccnc3)cn2)ccc1OC(F)(F)F [Example 14, N-(3,3′-bipyridin-6-yl)-3-[(morpholin-4-ylacetyl)amino]-4-(trifluoromethoxy)benzamide] | ≥ 50000 | 42.3 |  | 
15 | Nc1ccc(-c2ccc(NC(=O)c3ccc(OC(F)(F)F)c(NC(=O)CN4CCOCC4)c3)nc2)cn1 [Example 15, N-(6′-amino-3,3′-bipyridin-6-yl)-3-[(morpholin-4-ylacetyl)amino]-4-(trifluoromethoxy)benzamide] | ≥ 50000 | 81.5 |  | 
16 | O=C(CN1CCOCC1)Nc1cc(C(=O)Nc2ccc(-c3cccnc3F)cn2)ccc1OC(F)(F)F [Example 16, N-(2′-fluoro-3,3′-bipyridin-6-yl)-3-[(morpholin-4-ylacetyl)amino]-4-(trifluoromethoxy)benzamide] | ≥ 50000 | 103 |  | 
17 | Nc1ncc(-c2ccc(NC(=O)c3ccc(OC(F)(F)F)c(NC(=O)CN4CCOCC4)c3)nc2)cn1 [Example 17, N-[5-(2-aminopyrimidin-5-yl)pyridin-2-yl]-3-[(morpholin-4-ylacetyl)amino]-4-(trifluoromethoxy)benzamide] | ≥ 50000 | 120 |  | 
18 | CN1CCN(C2(C(=O)Nc3cc(C(=O)Nc4nnc(-c5ccccn5)s4)ccc3OC(F)(F)F)CC2)CC1 [Example 18, 3-({[1-(4-methylpiperazin-1-yl)cyclopropyl]carbonyl}amino)-N-[5-(pyridin-2-yl)-1,3,4-thiadiazol-2-yl]-4-(trifluoromethoxy)benzamide hydrochloride] | 10300 | 106 |  | 
19 | CN1CCN(C2(C(=O)Nc3cc(C(=O)Nc4nnc(-c5cccnc5)s4)ccc3OC(F)(F)F)CC2)CC1 [Example 19, 3-({[1-(4-methylpiperazin-1-yl)cyclopropyl]carbonyl}amino)-N-[5-(pyridin-3-yl)-1,3,4-thiadiazol-2-yl]-4-(trifluoromethoxy)benzamide hydrochloride] | ≥ 50000 | 105 |  | 
20 | CN1CCN(CC(=O)Nc2cc(C(=O)Nc3nnc(-c4cccnc4)s3)ccc2OC(F)(F)F)CC1 [Example 20, 3-{[(4-methylpiperazin-1-yl)acetyl]amino}-N-[5-(pyridin-3-yl)-1,3,4-thiadiazol-2-yl]-4-(trifluoromethoxy)benzamide hydrochloride] | 40000 | 167 |  | 
21 | CN1CCN(CC(=O)Nc2cc(C(=O)Nc3nnc(-c4cccnc4)s3)ccc2OC(F)(F)F)CC1 [Example 21, 3-{[(4-methylpiperazin-1-yl)acetyl]amino}-N-[5-(pyridin-3-yl)-1,3,4-thiadiazol-2-yl]-4-(trifluoromethoxy)benzamide] |  |  | ≥ 50000 | 315
22 | CC(C(=O)Nc1cc(C(=O)Nc2ccc(-c3ccncc3)nc2)ccc1OC(F)(F)F)N1CCOCC1 (stereo not drawn) [Example 22, N-(2,4′-bipyridin-5-yl)-3-{[2-(morpholin-4-yl)propanoyl]amino}-4-(trifluoromethoxy)benzamide] | ≥ 50000 | 285 |  | 
23 | CC(C(=O)Nc1cc(C(=O)Nc2ccc(-c3ccc(F)nc3)nc2)ccc1OC(F)(F)F)N1CCOCC1 (stereo not drawn) [Example 23, N-(6′-fluoro-2,3′-bipyridin-5-yl)-3-{[2-(morpholin-4-yl)propanoyl]amino}-4-(trifluoromethoxy)benzamide] | ≥ 50000 | 53.5 |  | 
24 | COc1ccc(NC(=O)c2ccc(-c3cccs3)nc2)cc1NC(=O)CN1CCOCC1 [Example 24, N-{4-methoxy-3-[(morpholin-4-ylacetyl)amino]phenyl}-6-(thiophen-2-yl)pyridine-3-carboxamide] | ≥ 50000 | 4000 |  | 
